# Source: ChEMBL document CHEMBL5214990, “Novel Aryl Alkamidazole Derivatives as Multifunctional Antifungal Inhibitors: Design, Synthesis, and Biological Evaluation” (J Med Chem, 2022)
# Active and inactive are the calls of the source. The calls are words filed in the database; no cut-off is given here.
# Legend:
# Candida albicans [1] = experiment: Induction of mitochondrial membrane depolarization in Candida albicans assessed as fungal cells with depolarized mitochondria measured after 24 hrs by JC-1 staining based flow cytometry (reference value: 3.22%); format: functional
# Mus musculus [2] = experiment: Anti-inflammatory activity in mouse infected with Candida albicans assessed as reduction in COX-2 expression in spleen at 20 mg/kg, ip administered on days 2,4,6,8,10,12 and measured on day 14 by immunohistochemical analysis; format: functional, organism-based; settings: time 13.0 day
# Candida tropicalis = experiment: Antifungal activity against Candida tropicalis ATCC 1369 assessed as inhibition of fungal growth measured after 72 hrs by CLSI based liquid medium dilution method; format: functional
# Candida albicans [3] = experiment: Antifungal activity against Candida albicans ATCC SC5314 assessed as inhibition of fungal growth measured after 72 hrs by CLSI based liquid medium dilution method; format: functional
# Candida albicans [4] = experiment: Antifungal activity against Candida albicans assessed as inhibition of fungal cell proliferation by measuring decrease in fungal cell density measured after 24 hrs; format: functional, organism-based
# Candida albicans [5] = experiment: Antifungal activity against Candida albicans infected in mouse assessed as reduction in fungal proliferation in the infection region at 20 mg/kg, ip administered on days 2,4,6,8,10,12 and measured on day 14 by hematoxylin-eosin staining based analysis; format: functional, organism-based; settings: time 13.0 day
# Candida albicans [6] = experiment: Antifungal activity against Candida albicans infected in mouse assessed as reduction in necrotic cell fragments in intercellular spaces of the infection region at 20 mg/kg, ip administered on days 2,4,6,8,10,12 and measured on day 14 by GMS staining based analysis; format: functional, organism-based; settings: time 13.0 day
# Candida albicans [7] = experiment: Antifungal activity against Candida albicans infected in mouse assessed as disappearance of nuclear aggregation in the infection region at 20 mg/kg, ip administered on days 2,4,6,8,10,12 and measured on day 14 by hematoxyin-eosin staining based analysis; format: functional, organism-based; settings: time 13.0 day
# [8] = molecular target: T1, Lanosterol 14-alpha demethylase (Candida albicans (strain SC5314 / ATCC MYA-2876) (Yeast), UniProt P10613); experiment: Inhibition of CYP51 in Candida albicans ATCC SC5314 assessed as reduction in substrate consumption using lanosterol as substrate preincubated for 30 mins followed by substrate addition and measured after 60 mins by HPLC analysis
# Candida albicans [9] = experiment: Antifungal activity against Candida albicans infected in mouse assessed as reduction in total amount of fungal cells in infection region at 20 mg/kg, ip administered on days 2,4,6,8,10,12 and measured on day 14 by GMS staining based analysis; format: functional, organism-based; settings: time 13.0 day
# Mus musculus [10] = experiment: Anti-inflammatory activity in mouse infected with Candida albicans assessed as reduction in NLRP3 expression in infection tissues at 20 mg/kg, ip administered on days 2,4,6,8,10,12 and measured on day 14 by western blot analysis; format: functional, organism-based; settings: time 13.0 day
# [11] = Renal toxicity in mouse infected with Candida albicans assessed as blood urea nitrogen level at 20 mg/kg, ip administered on days 2,4,6,8,10,12 and measured on day 14 (reference value: 16.2 +/-1.6 mmol/L); format: organism-based; settings: in vivo, 312 h, time 13 day
# Mus musculus [12] = experiment: Anti-inflammatory activity in mouse infected with Candida albicans assessed as reduction in COX-2 expression in infection tissues at 20 mg/kg, ip administered on days 2,4,6,8,10,12 and measured on day 14 by western blot analysis; format: functional, organism-based; settings: time 13.0 day
# Candida albicans [13] = experiment: Induction of apoptosis in Candida albicans assessed as late apoptotic cells measured after 24 hrs by Annexin V-FITC/PI staining based flow cytometry (reference value: 0.44%); format: functional
# Cryptococcus neoformans = experiment: Antifungal activity against Cryptococcus neoformans assessed as inhibition of fungal growth measured after 72 hrs by CLSI based liquid medium dilution method; format: functional
# Mus musculus [14] = experiment: Anti-inflammatory activity in mouse infected with Candida albicans assessed as reduction in PD-L1 expression in spleen at 20 mg/kg, ip administered on days 2,4,6,8,10,12 and measured on day 14 by immunohistochemical analysis; format: functional, organism-based; settings: time 13.0 day
# Candida albicans [15] = experiment: Antifungal activity against fluconazole-resistant Candida albicans 901 assessed as inhibition of fungal growth measured after 72 hrs by CLSI based liquid medium dilution method; format: functional
# Candida albicans [16] = experiment: Induction of apoptosis in Candida albicans assessed as early apoptotic cells measured after 24 hrs by Annexin V-FITC/PI staining based flow cytometry (reference value: 0.46%); format: functional
# Candida albicans [17] = experiment: Antifungal activity against fluconazole-resistant Candida albicans CaR assessed as inhibition of fungal growth measured after 72 hrs by CLSI based liquid medium dilution method; format: functional
# [18] = Hepatotoxicity in mouse infected with Candida albicans assessed as plasma AST level at 20 mg/kg, ip administered on days 2,4,6,8,10,12 and measured on day 14 (reference value: 53.4 +/-6.8 IU/L); format: toxicity, organism-based; settings: in vivo, 312 h, time 13 day
# Candida albicans [19] = experiment: Induction of apoptosis in Candida albicans assessed as necrotic cells measured after 24 hrs by Annexin V-FITC/PI staining based flow cytometry (reference value: 3.37%); format: functional
# Mus musculus [20] = experiment: Anti-inflammatory activity in mouse infected with Candida albicans assessed as reduction in IL-6R expression in spleen at 20 mg/kg, ip administered on days 2,4,6,8,10,12 and measured on day 14 by immunohistochemical analysis; format: functional, organism-based; settings: time 13.0 day
# Candida albicans [21] = experiment: Antifungal activity against Candida albicans infected in mouse assessed as reduction in total amount of fungal cells in infection region at 20 mg/kg, ip administered on days 2,4,6,8,10,12 and measured on day 14 by hematoxyin-eosin staining based analysis; format: functional, organism-based; settings: time 13.0 day
# Candida albicans [22] = experiment: Antifungal activity against Candida albicans infected in mouse assessed as reduction in fungal endogenous infection symptoms at 20 mg/kg, ip administered on days 2,4,6,8,10,12 and measured on day 14 by GMS staining based analysis; format: functional, organism-based; settings: time 13.0 day
# Candida albicans [23] = experiment: Antifungal activity against Candida albicans infected in mouse assessed as disappearance of nuclear aggregation in the infection region at 20 mg/kg, ip administered on days 2,4,6,8,10,12 and measured on day 14 by GMS staining based analysis; format: functional, organism-based; settings: time 13.0 day
# Candida albicans [24] = experiment: Antifungal activity against fluconazole-resistant Candida albicans 904 assessed as inhibition of fungal growth measured after 72 hrs by CLSI based liquid medium dilution method; format: functional
# [25] = Hepatotoxicity in mouse infected with Candida albicans assessed as plasma ALT level at 20 mg/kg, ip administered on days 2,4,6,8,10,12 and measured on day 14 (reference value: 33.5 +/-3.4 IU/L); format: toxicity, organism-based; settings: in vivo, 312 h, time 13 day
# Candida albicans [26] = experiment: Induction of apoptosis in Candida albicans assessed as viable cells measured after 24 hrs by Annexin V-FITC/PI staining based flow cytometry (reference value: 95.7%); format: functional
# Candida albicans [27] = experiment: Antifungal activity against fluconazole-resistant Candida albicans 17# assessed as inhibition of fungal growth measured after 72 hrs by CLSI based liquid medium dilution method; format: functional
# [28] = molecular target: T1, Lanosterol 14-alpha demethylase; experiment: Inhibition of CYP51 in Candida albicans ATCC SC5314 assessed as ergosterol content at 4 ug/ml measured after 48 hrs by GC-MS analysis (reference value: 95.61%); design: scale not given: the % may be the effect or the level left; settings: at 4 µg/mL
# Candida albicans [29] = experiment: Induction of mitochondrial membrane depolarization in Candida albicans assessed as fungal cells with intact mitochondria measured after 24 hrs by JC-1 staining based flow cytometry (reference value: 95.9%); format: functional
# Aspergillus fumigatus = experiment: Antifungal activity against Aspergillus fumigatus KM8001 assessed as inhibition of fungal growth measured after 72 hrs by CLSI based liquid medium dilution method; format: functional
# T1 sequence (P10613 whole entry): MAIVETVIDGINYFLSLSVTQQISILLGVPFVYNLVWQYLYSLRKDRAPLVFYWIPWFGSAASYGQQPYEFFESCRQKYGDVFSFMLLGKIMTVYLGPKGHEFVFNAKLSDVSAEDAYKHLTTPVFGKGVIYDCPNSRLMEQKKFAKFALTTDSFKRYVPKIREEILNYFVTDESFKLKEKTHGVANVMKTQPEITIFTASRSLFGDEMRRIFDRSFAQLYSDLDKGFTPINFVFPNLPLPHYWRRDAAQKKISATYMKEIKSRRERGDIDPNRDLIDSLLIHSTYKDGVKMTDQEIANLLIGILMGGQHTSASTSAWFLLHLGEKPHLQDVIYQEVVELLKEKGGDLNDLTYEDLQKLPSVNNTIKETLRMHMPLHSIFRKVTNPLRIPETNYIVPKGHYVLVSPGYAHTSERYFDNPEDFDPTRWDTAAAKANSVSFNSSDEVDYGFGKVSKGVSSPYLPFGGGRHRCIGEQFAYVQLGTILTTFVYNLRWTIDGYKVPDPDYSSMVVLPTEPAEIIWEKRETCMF
Compound,Activity (Candida albicans [1]),Activity (Mus musculus [2]),MIC50 (Candida tropicalis),MIC50 (Candida albicans [3]),Activity (Candida albicans [4]),Activity (Candida albicans [5]),Activity (Candida albicans [6]),Activity (Candida albicans [7]),IC50 [8],Activity (Candida albicans [9]),Activity (Mus musculus [10]),Activity [11],Activity (Mus musculus [12]),Activity (Candida albicans [13]),MIC50 (Cryptococcus neoformans),Activity (Mus musculus [14]),MIC50 (Candida albicans [15]),Activity (Candida albicans [16]),MIC50 (Candida albicans [17]),Activity [18],also measured
OC(Cn1cncn1)(Cn1cncn1)c1ccc(F)cc1F [FLUCONAZOLE],19.1%,Active,0.5 µg/mL,0.5 µg/mL,Active,Active,Active,Active,110 nM,Active,Active,24.4 mmol/L,Active,5.96%,0.5 µg/mL,Active,> 8 µg/mL,12.3%,> 8 µg/mL,80.5 IU/L,Activity (Candida albicans [19]): 13%; Activity (Mus musculus [20]): Active; Activity (Candida albicans [21]): Active; Activity (Candida albicans [22]): Active; Activity (Candida albicans [23]): Active; MIC50 (Candida albicans [24]): > 8 µg/mL; Activity [25]: 46.1 IU/L; Activity (Candida albicans [26]): 68.7%; MIC50 (Candida albicans [27]): > 8 µg/mL; Activity [28]: 20.57%; Activity (Candida albicans [29]): 60.8%; MIC50 (Aspergillus fumigatus): > 8 µg/mL
C[C@H](C(=O)N(C)CC(O)(Cn1ccnc1)c1ccc(Cl)cc1)c1ccc(-c2ccccc2)c(F)c1 (stereo partly specified),67.3%,Active,0.25 µg/mL,0.125 µg/mL,Active,Active,Active,Active,190 nM,Active,Active,20.5 mmol/L,Active,19.4%,0.5 µg/mL,Active,0.5 µg/mL,1.8%,1 µg/mL,69.5 IU/L,Activity (Candida albicans [19]): 34.3%; Activity (Mus musculus [20]): Active; Activity (Candida albicans [21]): Active; Activity (Candida albicans [22]): Active; Activity (Candida albicans [23]): Active; MIC50 (Candida albicans [24]): 2 µg/mL; Activity [25]: 42.4 IU/L; Activity (Candida albicans [26]): 44.4%; MIC50 (Candida albicans [27]): 2 µg/mL; Activity [28]: 13.51%; Activity (Candida albicans [29]): 32.6%; MIC50 (Aspergillus fumigatus): 2 µg/mL
C[C@H](C(=O)N(C)CC(O)(Cn1ccnc1)c1ccc(Cl)cc1Cl)c1cccc(C(=O)c2ccccc2)c1 (stereo partly specified),66.6%,Active,0.25 µg/mL,0.125 µg/mL,Active,Active,Active,Active,160 nM,Active,Active,17 mmol/L,Active,28.1%,0.25 µg/mL,Active,0.5 µg/mL,2.13%,1 µg/mL,66.5 IU/L,Activity (Candida albicans [19]): 26%; Activity (Mus musculus [20]): Active; Activity (Candida albicans [21]): Active; Activity (Candida albicans [22]): Active; Activity (Candida albicans [23]): Active; MIC50 (Candida albicans [24]): 1 µg/mL; Activity [25]: 43.2 IU/L; Activity (Candida albicans [26]): 43.8%; MIC50 (Candida albicans [27]): 2 µg/mL; Activity [28]: 7.95%; Activity (Candida albicans [29]): 53.1%; MIC50 (Aspergillus fumigatus): 2 µg/mL
